From paper PMC8650221 (Biochemistry, 2021)
Like-named read-outs stand apart in the source and are kept apart here.

Experiments:
T100’A OMPDC [1] = molecular target: T1, T100’A OMPDC (Saccharomyces cerevisiae, UniProt P03962, T100A); assay type: biochemical; conditions: pH 7.0, 25 °C, I = 0.15 (NaCl); for (kcat/Km)E•Act/Kd: activated decarboxylation of FO, T100’A OMPDC; for Kd: activator of T100’A OMPDC-catalyzed decarboxylation of FO
wild type OMPDC [2] = conditions: cited from earlier work; for (kcat/Km)E•Act/Kd: activated decarboxylation of FO, pH 7.0, 25 °C, I = 0.15 (NaCl); for stabilization of the transition state for OMPDC-catalyzed decarboxylation of FO by activator (ΔG^‡act): 1.0 M dianion activator
adenylate kinase = conditions: cited from earlier work
D37G OMPDC [3] = molecular target: T2, D37G OMPDC (Saccharomyces cerevisiae, UniProt P03962, D37G); assay: D37G variant OMPDC-catalyzed decarboxylation of FO, dianion-activated; assay type: biochemical
D37G OMPDC [4] = molecular target: T2, D37G OMPDC; assay type: biochemical; conditions: phosphite dianion activation of D37G-catalyzed decarboxylation of EO, pH 7.0, 25 °C, I = 0.14 (NaCl)
wild type OMPDC [5] = conditions: cited from earlier work
D37G OMPDC [6] = molecular target: T2, D37G OMPDC; assay: D37G variant OMPDC-catalyzed decarboxylation of OMP; assay type: biochemical
T100’A OMPDC [7] = molecular target: T1, T100’A OMPDC; assay: T100’A variant OMPDC-catalyzed decarboxylation of OMP; assay type: biochemical
wild type OMPDC [8] = conditions: cited from earlier work; remark: listed apart in the source

T2 sequence (P03962 whole entry D37G): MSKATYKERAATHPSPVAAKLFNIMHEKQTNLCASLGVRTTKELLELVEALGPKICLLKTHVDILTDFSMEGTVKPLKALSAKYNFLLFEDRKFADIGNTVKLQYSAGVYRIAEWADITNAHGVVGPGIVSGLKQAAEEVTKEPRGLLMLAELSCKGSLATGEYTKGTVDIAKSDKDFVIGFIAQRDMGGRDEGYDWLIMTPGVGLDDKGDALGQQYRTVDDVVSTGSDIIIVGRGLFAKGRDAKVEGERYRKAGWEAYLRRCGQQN
T1 sequence (P03962 whole entry T100A): as the sequence (P03962 whole entry D37G) above, with G37D, T100A counted along it

Structure (SMILES) | (kcat/Km)E•Act/Kd (T100’A OMPDC [1]) | Kd (T100’A OMPDC [1]) | (kcat/Km)E•Act/Kd (wild type OMPDC [2]) | stabilization of the transition state for OMPDC-catalyzed decarboxylation of FO by activator (ΔG^‡act) (wild type OMPDC [2]) [kcal/mol] | also measured
O=P(O)(O)OCC(O)CO (racemic) [DLG3P, D,L-glycerol 3-phosphate] | (1.7 ± 0.2) × 10^−3 M^−2 s^−1 | 94 ± 8 mM | 1.3 × 10^−2 M^−2 s^−1 | – | –
Nc1c2ncnc-2ncn1[C@@H]1OC[C@@H](O)[C@H]1O [(1-β-D-erythrofuranosyl)adenine] | – | – | – | – | transition state stabilization by interactions with the substrate piece (adenylate kinase; phosphoryl transfer from ATP to phosphite dianion): ≥ 8.7 kcal/mol
Nc1ncnc2c1ncn2[C@@H]1O[C@H](COP(=O)(O)O)[C@@H](O)[C@H]1O [AMP] | – | – | – | – | transition state stabilization by interactions with the adenosyl group (adenylate kinase; enzyme-catalyzed phosphoryl transfer from ATP (to AMP)): ≥ 14.7 kcal/mol
O=P(O)(O)OC[C@@H](O)[C@@H](O)CO [DE4P, D-erythritol 4-phosphate] | (5.4 ± 0.1) × 10^−3 M^−2 s^−1 | – | 6.0 × 10^−1 M^−2 s^−1 | 9.0 | Kd (D37G OMPDC [3]): 3 mM
O=P(O)(O)OCC(O)CO [DG3P, D-glycerol 3-phosphate] | – | – | 2.5 × 10^−2 M^−2 s^−1 | 7.2 | –
O=[PH](O)O [HPO3^2−, phosphite dianion] | (1.87 ± 0.03) × 10^−4 M^−2 s^−1 | Kd >> [HPO3^2−]^e | 8.4 × 10^−4 M^−2 s^−1 | 5.2 | Kd (D37G OMPDC [4]): 5.1 mM; Kd (D37G OMPDC [3]; activator of D37G OMPDC-catalyzed decarboxylation of FO, pH 7.0, 25 °C, I = 0.15 (NaCl)): 4.7 mM; Kd (D37G OMPDC [3]; phosphite dianion activation of D37G-catalyzed decarboxylation of FO): 4.7 mM; ΔG^‡act, stabilization of the decarboxylation transition state by phosphite dianion (wild type OMPDC [5]; decarboxylation of EO, wild type OMPDC): 7.7 kcal/mol; Kd (wild type OMPDC [5]; productive (observed) binding of phosphite dianion activator to wild type OMPDC or variant enzymes): ~100 mM
O=P(O)(O)OC[C@H](O)CO [LG3P, L-glycerol 3-phosphate] | (5.3 ± 0.2) × 10^−4 M^−2 s^−1 | Kd >> [LG3P]^e | 1.0 × 10^−3 M^−2 s^−1 | – | –
O=C(O)c1cc(=O)[nH]c(=O)n1[C@@H]1O[C@H](COP(=O)(O)O)[C@@H](O)[C@H]1O [OMP, orotidine 5’-monophosphate] | – | – | – | – | intrinsic dianion binding energy (D37G OMPDC [6]; D37G OMPDC, calculated from ratio of kcat/Km for OMP and EO (Table 1)): 11.0 kcal/mol; decrease in transition state stabilization by protein interactions with the substrate dianion (D37G OMPDC [6]; effect of D37G substitution, decarboxylation of OMP): 0.7 kcal/mol; intrinsic dianion binding energy (T100’A OMPDC [7]; T100’A OMPDC, calculated from ratio of kcat/Km for OMP and EO (Table 1)): 10.8 kcal/mol; decrease in transition state stabilization by protein interactions with the substrate dianion (T100’A OMPDC [7]; effect of T100’A substitution, decarboxylation of OMP): 0.9 kcal/mol; stabilization of the Michaelis complex (wild type OMPDC [8]; Michaelis complex of OMPDC to OMP): 8 kcal/mol; transition state stabilization (wild type OMPDC [8]; OMPDC-catalyzed decarboxylation of OMP): 31 kcal/mol; intrinsic dianion binding energy (wild type OMPDC [8]; wild type OMPDC, from ratio of kcat/Km for OMP and EO): 11.7 kcal/mol
